Measured values: ChEMBL document CHEMBL3853353, “Identification and optimization of a new series of anti-tubercular quinazolinones” (Bioorg Med Chem Lett, 2016)
Converted amounts (≈) assume the structure as drawn.

Columns and labels:
[1] = system: Mycobacterium tuberculosis; test: Ratio of MIC80 for Mycobacterium tuberculosis H37Rv in presence of 25% human serum to MIC80 for Mycobacterium tuberculosis H37Rv; assay type: functional
[2] = system: Mycobacterium tuberculosis; test: Antimycobacterial activity against Mycobacterium tuberculosis H37Rv incubated for 5 days by Bactiter-Glo assay; assay type: functional; conditions: 120 h
[3] = Cytotoxicity against human HepG2 cells assessed as reduction in cell viability after 40 hrs by Celltiter-Glo assay
[4] = system: Mycobacterium tuberculosis; test: Antimycobacterial activity against Mycobacterium tuberculosis H37Rv incubated for 5 days in presence of 25% human serum by Bactiter-Glo assay; assay type: functional; conditions: 120 h
[5] = Aqueous equilibrium solubility of compound in pH 7.4 solution at 20 degC; conditions: aqueous pH 7.4 solution
[6] = Lipophilicity, log P of compound; conditions: octanol/water
Cytochrome P450 3A4 [7] = molecular target: T1, Cytochrome P450 3A4 (Homo sapiens, UniProt P08684); test: Inhibition of CYP3A4 in human liver microsomes assessed as 1'-hydroxymidazolam metabolite formation using midazolam as substrate incubated for 10 mins by HPLC-MS method
T1 sequence (P08684 whole entry): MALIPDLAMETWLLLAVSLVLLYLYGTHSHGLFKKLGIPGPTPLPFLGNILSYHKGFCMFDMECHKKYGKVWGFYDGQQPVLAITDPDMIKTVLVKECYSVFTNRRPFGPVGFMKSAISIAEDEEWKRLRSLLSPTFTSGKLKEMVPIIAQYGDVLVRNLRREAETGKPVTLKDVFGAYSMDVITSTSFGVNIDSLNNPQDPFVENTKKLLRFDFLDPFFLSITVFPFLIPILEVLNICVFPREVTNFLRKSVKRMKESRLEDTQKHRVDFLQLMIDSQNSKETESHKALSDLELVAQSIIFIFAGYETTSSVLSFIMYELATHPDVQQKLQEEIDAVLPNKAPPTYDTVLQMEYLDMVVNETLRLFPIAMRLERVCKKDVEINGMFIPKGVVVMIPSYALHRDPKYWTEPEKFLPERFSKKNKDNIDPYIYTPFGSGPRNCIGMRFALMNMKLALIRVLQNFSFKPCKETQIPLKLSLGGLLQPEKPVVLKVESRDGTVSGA

[8] = Permeability in human Caco2 cells; conditions: caco-2
Cytochrome P450 3A4 [9] = molecular target: T1, Cytochrome P450 3A4; test: Inhibition of CYP3A4 in human liver microsomes assessed as 6-beta-hydroxytestosterone metabolite formation using testosterone as substrate incubated for 30 mins by HPLC-MS method
[10] = Aqueous equilibrium solubility of compound in pH 1 solution at 20 degC; conditions: aqueous pH 1 solution
[11] = system: Mycobacterium tuberculosis; test: Antimycobacterial activity against GFP-tagged Mycobacterium tuberculosis H37Rv infected in mouse RAW264.7 cells incubated for 4 days by Mask blue/Hoechst/FITC staining based fluorescence microscopic analysis; assay type: functional; conditions: 96 h

| Compound | Ratio [1] | MIC80 [2] [µM] | IC50 at 40 h ([3]; hepg2) [µM] | MIC80 [4] [µM] | solubility thermodynamic [5] [µg/mL] | logP [6] | IC50 (Cytochrome P450 3A4 [7]) [µM] | IC50 at 40 h ([3]; HepG2 cells) [µM] | permeability [8] | IC50 (Cytochrome P450 3A4 [9]) [µM] | solubility thermodynamic [10] [µg/mL] | MIC80 [11] [µM] |
| --- | --- | --- | --- | --- | --- | --- | --- | --- | --- | --- | --- | --- |
| COc1ccc(-c2ccc(CCNc3nc4cc(Cl)ccc4c(=O)n3C)nn2)cc1 | 8 | 0.74 (≈ 0.312 µg/mL) |  |  |  |  |  |  |  |  |  |  |
| Cn1c(NCCc2ccc(-n3cccn3)cc2)nc2cc(Cl)ccc2c1=O |  | 0.02 (≈ 0.0076 µg/mL) | 17.3 | 8.56 |  |  |  |  |  |  |  |  |
| COc1ccc(CCNc2nc3cc(Cl)ccc3c(=O)n2C)nc1 | 8 | 0.53 (≈ 0.183 µg/mL) |  |  | 9 (≈ 26.1 µM) | 3.32 | < 1 | 27 | Permeable | 7.4 | 1140 (≈ 3300 µM) |  |
| Cn1c(NCCc2ccc(-c3ncc(Cl)cn3)cc2)nc2cc(Cl)ccc2c1=O |  | 0.006 (≈ 0.00256 µg/mL) |  | 0.11 | < 1 | 5.02 |  | > 30 | Permeable |  | 10 (≈ 23.5 µM) | 0.947 (≈ 0.404 µg/mL) |
| Cn1c(NCCc2ccc(-c3ccccc3)cc2)nc2cc(Cl)ccc2c1=O | 8 | 0.008 (≈ 0.00312 µg/mL) |  | 0.87 | < 1 | 5.27 | > 30 | 6.5 | Permeable | > 30 | 5 (≈ 12.8 µM) | 0.164 (≈ 0.0639 µg/mL) |
| Cn1c(NCCc2ccc(-c3ccccn3)cc2)nc2cc(Cl)ccc2c1=O |  | 0.027 (≈ 0.0106 µg/mL) | 16.5 | 25.2 |  |  |  |  |  |  |  |  |
| COc1cnc(-c2ccc(CCNc3nc4cc(Cl)ccc4c(=O)n3C)cc2)nc1 |  | 0.016 (≈ 0.00675 µg/mL) | > 30 | 3.52 |  |  |  |  |  |  |  | 0.081 (≈ 0.0342 µg/mL) |
| COc1ccc(NCc2nc3cc(Cl)ccc3c(=O)n2C)cc1 | >10 | 19.9 (≈ 6.56 µg/mL) |  |  |  |  |  | 15.7 |  |  |  |  |
| COc1ccc(CCNc2nc3cc(F)ccc3c(=O)n2C)cc1 | >10 | 0.2 (≈ 0.0655 µg/mL) |  |  |  |  |  | > 30 |  |  |  |  |
| COCCOc1ccc(CCNc2nc3cc(Cl)ccc3c(=O)n2C)cc1 | 8 | 0.08 (≈ 0.031 µg/mL) |  | > 10 |  | 3.86 |  | > 30 |  |  |  |  |
| Cn1c(NCCc2ccc(-n3cc(Cl)cn3)cc2)nc2cc(Cl)ccc2c1=O | 8 | 0.01 (≈ 0.00414 µg/mL) |  | 0.86 | < 1 | 4.67 | 16 | 21.6 | Permeable |  | < 1 |  |
| COc1ccc(CCNc2nc3cc(Cl)c(F)cc3c(=O)n2C)cc1 | >10 | 0.03 (≈ 0.0109 µg/mL) |  |  |  |  |  | > 30 |  |  |  |  |
| COc1ccc(CCN(C)c2nc3cc(Cl)ccc3c(=O)n2C)cc1 | >10 | 11.2 (≈ 4.01 µg/mL) |  |  |  |  |  | > 30 |  |  |  |  |
| Cn1c(NCCc2ccc(N3CCOCC3)cc2)nc2cc(Cl)ccc2c1=O | 8 | 0.33 (≈ 0.132 µg/mL) |  | > 10 | 8 (≈ 20.1 µM) |  | 11 | > 30 | Permeable | 11 | 1090 (≈ 2740 µM) |  |
| Cn1c(NCCc2ccc(-c3ccc(F)cc3)cn2)nc2cc(Cl)ccc2c1=O | 8 | 0.06 (≈ 0.0245 µg/mL) |  | 4.02 |  | 4.23 |  | 0.057 |  |  |  | 0.201 (≈ 0.0822 µg/mL) |
| COc1ccc(CCNc2nc3cc(N(C)C)ccc3c(=O)n2C)cc1 | >10 | 0.11 (≈ 0.0388 µg/mL) |  |  |  | 1.94 |  |  |  |  |  |  |
| COc1ccc(-c2ccc(CCNc3nc4cc(Cl)ccc4c(=O)n3C)cc2)cn1 | 8 | 0.09 (≈ 0.0379 µg/mL) |  |  |  | 4.68 |  | 11.3 |  |  |  |  |
| COc1ccc(CCNc2nc3cc(OC)ccc3c(=O)n2C)cc1 | >10 | 0.026 (≈ 0.00882 µg/mL) |  |  | 4 (≈ 11.8 µM) | 3.1 | < 1 | > 30 | Permeable | 10 | 734 (≈ 2160 µM) |  |
| COc1ccc(CCNc2nc3cc(C)ccc3c(=O)n2C)cc1 | >10 | 0.01 (≈ 0.00323 µg/mL) |  |  | < 1 |  | < 1 | > 30 | Permeable | 4.8 | 221 (≈ 683 µM) |  |
| Cn1c(NCCc2ccc(-c3ncccn3)cc2)nc2cc(Cl)ccc2c1=O |  | 0.079 (≈ 0.031 µg/mL) | 25.4 | 4.06 |  |  |  |  |  |  |  |  |
| COc1ccc(-c2ccc(CCNc3nc4cc(Cl)ccc4c(=O)n3C)cc2)nc1 | 8 | 0.06 (≈ 0.0253 µg/mL) |  |  |  | 4.67 |  | 11.9 |  |  |  |  |

| Compound | Ratio [1] | MIC80 [2] [µM] | IC50 at 40 h ([3]; hepg2) [µM] | MIC80 [4] [µM] | solubility thermodynamic [5] [µg/mL] | logP [6] | IC50 (Cytochrome P450 3A4 [7]) [µM] | IC50 at 40 h ([3]; HepG2 cells) [µM] | permeability [8] | IC50 (Cytochrome P450 3A4 [9]) [µM] | solubility thermodynamic [10] [µg/mL] | MIC80 [11] [µM] |
| --- | --- | --- | --- | --- | --- | --- | --- | --- | --- | --- | --- | --- |
| Cn1c(NCCc2ccc(-c3ccccc3)cn2)nc2cc(Cl)ccc2c1=O | 8 | 0.004 (≈ 0.00156 µg/mL) |  |  |  |  |  | 18.3 |  |  |  |  |
| Cn1c(NCCc2ccccc2)nc2cc(Cl)ccc2c1=O | 8 | 0.06 (≈ 0.0188 µg/mL) |  | 2.79 | < 1 | 4.24 | 11 | 15.2 | Permeable | 18 | 180 (≈ 574 µM) |  |
| Cn1c(NCCc2ccc(-c3ncc(F)cn3)cc2)nc2cc(Cl)ccc2c1=O | 30 | 0.003 (≈ 0.00123 µg/mL) |  | 0.39 | < 1 | 4.46 | > 30 | > 30 | Permeable | 9.9 | 11 (≈ 26.8 µM) | 0.013 (≈ 0.00533 µg/mL) |
| Cn1c(NCCc2ccc(OC(F)(F)F)cc2)nc2cc(Cl)ccc2c1=O | 8 | 0.07 (≈ 0.0278 µg/mL) |  | 2.33 | < 1 | 4.95 | 4 | 9.9 | Permeable | > 30 | 43 (≈ 108 µM) |  |
| CCn1c(NCCc2ccc(OC)cc2)nc2cc(Cl)ccc2c1=O | >10 | 1.1 (≈ 0.394 µg/mL) |  |  |  |  |  | 21 |  |  |  |  |
| Cn1c(NCCc2ccc(-c3ccc(Cl)cc3)nn2)nc2cc(Cl)ccc2c1=O | 8 | 0.03 (≈ 0.0128 µg/mL) |  | 3.32 |  | 4.67 |  | > 30 |  |  |  |  |
| COc1ccc(CCNc2nc3ccc(Cl)cc3c(=O)n2C)cc1 | >10 | 0.9 (≈ 0.309 µg/mL) |  |  |  |  |  | 26.1 |  |  |  |  |
| Cn1c(NCCc2ccc(-c3ccc(F)cn3)cc2)nc2cc(Cl)ccc2c1=O |  | 0.015 (≈ 0.00613 µg/mL) | 19 | 3.14 |  |  |  |  |  |  |  | 0.051 (≈ 0.0209 µg/mL) |
| COc1ccc(CCCNc2nc3cc(Cl)ccc3c(=O)n2C)cc1 | >10 | 5.8 (≈ 2.08 µg/mL) |  |  |  |  |  | 16.8 |  |  |  |  |
| COc1ccc(-c2ccc(CCNc3nc4cc(Cl)ccc4c(=O)n3C)nc2)cn1 | 8 | 0.31 (≈ 0.131 µg/mL) |  | > 15 |  |  |  | 24.1 |  |  |  |  |
| Cn1c(NCCc2ccc(-c3ccc(Cl)cn3)cc2)nc2cc(Cl)ccc2c1=O | 30 | 0.002 (≈ 0.000851 µg/mL) |  | 0.25 | < 1 | 5.04 | > 30 | > 30 | Permeable | 8.4 | 21 (≈ 49.4 µM) | 0.063 (≈ 0.0268 µg/mL) |
| Cn1c(NCCc2ccc(Oc3ccc(Cl)cn3)cc2)nc2cc(Cl)ccc2c1=O |  | 0.02 (≈ 0.00883 µg/mL) | 13 | 1.76 |  |  |  |  |  |  |  |  |
| COc1ccc(CCNc2nc3cc(N)ccc3c(=O)n2C)cc1 | 5 | 0.04 (≈ 0.013 µg/mL) |  | 0.198 |  | 1.94 |  |  |  |  |  |  |
| COc1ccc(CCNc2nc3cc(C#N)ccc3c(=O)n2C)cc1 | >10 | 0.48 (≈ 0.161 µg/mL) |  |  |  |  |  | 12.7 |  |  |  |  |
| COc1ccc(CCNc2nc3cc(Cl)ccc3c(=O)[nH]2)cc1 | >10 | 6.3 (≈ 2.08 µg/mL) |  |  |  |  |  |  |  |  |  |  |
| COc1ccc(-c2ccc(CCNc3nc4cc(Cl)ccc4c(=O)n3C)cc2)cc1 | 200 | 0.007 (≈ 0.00294 µg/mL) |  | 1.47 | < 1 | 5.13 | 8 | > 30 | Permeable | 7.9 | 26 (≈ 61.9 µM) |  |
| Cn1c(NCCc2ccc(-c3ccccc3)nn2)nc2cc(Cl)ccc2c1=O | 8 | 1.12 (≈ 0.439 µg/mL) |  |  |  |  |  | 15.1 |  |  |  |  |
| COc1ccc(-c2ccc(CCNc3nc4cc(Cl)ccc4c(=O)n3C)nc2)cc1 | 8 | 0.32 (≈ 0.135 µg/mL) |  |  |  | 4.03 |  | 14.7 |  |  |  |  |
| Cn1c(NCCc2ccc(Oc3ccccn3)cc2)nc2cc(Cl)ccc2c1=O | 8 | 0.06 (≈ 0.0244 µg/mL) |  | 7.37 |  |  |  | 12.1 |  |  |  |  |
| COc1ccc(CCNc2nc3ccccc3c(=O)n2C)cc1 | >10 | 0.24 (≈ 0.0742 µg/mL) |  |  |  |  |  | > 30 |  |  |  |  |
